Laboratory results taken from US5922554A, “Inhibition of cellular uptake of cholesterol” (The Regents of the University of California, priority 1996, dated 1999).

What was measured:
[1] = test system: fibroblast monolayers; assay: Influx/uptake of ^3 H-FC (free cholesterol) from labeled LDL (or plasma, HDL) into normal fibroblast monolayers; type: cell-based, human; set-up: Emax: dose or concentration left out as unconfirmed; settings: for effect on uptake of ^3 H-FC from LDL: up to 60 μM; for FC Influx: LDL-FC 60.2 μg ml^-1, 60 min, 37° C., 30 min preequilibration with inhibitor at: Na-azide 1 mM, NH4-vanadate 1 mM, NEM 2 mM, KNO3 50 mM, progesterone 30 μM, forskolin 30 μM, IBMX 100 μM, chloroquine 20 μM; for FC Influx, % (PBS only = 100.0): same concentrations and conditions as Table 3 FC influx, 60 min; for inhibition at higher concentration (words): up to 100 μM; for effect on LDL FC uptake: Table 3 conditions
[2] = test system: fibroblast monolayers; assay: Transfer of intracellular ^3 H-FC to the cell surface (cholesterol oxidase accessibility); type: cell-based, human; settings: for % transfer of intracellular ^3 H-FC to the cell surface, relative to rate in absence of inhibitor: NEM 2 mM, KNO3 50 mM, nocodazole, brefeldin A, vinblastine 40 μM, pulse labeled 2 min 31° C., then 30 min 31° C.
Method: This assay utilized the finding (see Example 1) that only FC in the caveolar fraction of the plasma membrane fraction was modified by cholesterol oxidase in unfixed fibroblast monolayers.
The rate at which intracellular LDL-derived ^3 H-FC became accessible at the cell surface was measured as follows. Cell monolayers were labeled with ^3 H-FC LDL under the conditions shown for each experiment. Unbound and adsorbed LDL were removed as described above. In some experiments metabolic inhibitors of different transport steps were then added for 30 min at 15° C. […] Cholesterol oxidase (Boehringer-Manheim, Indianapolis, Ind., USA) was added in PBS to a final concentration of 1 U ml^-1. Incubation was for 4 h at 0° C. The cells were washed with ice-cold PBS, and extracted with 0. 1N NAOH. Cell total lipid was extracted with chloroform-methanol (1:1 v/v). […] .
Fibroblast monolayers were prelabeled with FC-labeled LDL for 2 min at 31° C. Medium and surface-bound labeled LDL were removed as described above. The cells were incubated with inhibitors of intracellular transport for 30 min at 15° C. Movement of FC label to the cell surface remained negligible (FIG. 11).
^a Relative to rate in the absence of inhibitor. Values are expressed

[3] = test system: fibroblast monolayers; assay: D2O-Ficoll density gradient fractionation of ^3 H-FC labeled fibroblasts; type: cell-based, human; settings: clathrin fraction d 1.12 g ml^-1; NEM 2 mM
Method: Early endosomal vesicles were labeled with LDL-derived ^3 H-FC by a modification of procedures described by Woodman & Warren (1991) J. Cell Biol., 112:1133-1141. Fibroblast monolayers in 10 cm dishes were washed in ice-cold PBS. The cells were labeled by incubation (2 h, 4° C.) with ^3 H-FC LDL. The monolayers were washed in PBS and brought to 31° C. for 0-15 min. The cells were then quickly chilled on ice, and cold unlabeled LDL was added (15 min, 4° C.) to displace any remaining surface-bound labeled LDL and all subsequent steps were carried out at 0-4° C.
Cells from three 10 cm dishes were used for each gradient. Monolayers were washed with 140 mM sucrose, 0.5 mM MgCl2, 1 mM EGTA, 20 mM 2-[N-morpholino]ethanesulfonic acid (MES), 70 mM potassium acetate, pH 6.6 (`vesicle buffer`) (Woodman & Warren, supra.). The cells were scraped from the dishes. Dithiothreitol (1 mm) and protease inhibitors (PMSF, 200 μg ml^-1; benzamidine 0.5 mM; soybean trypsin inhibitor 10 μg ml^-1; leupeptin 1 μg ml^-1) were added. The cells were broken with a Dounce homogenizer (15 strokes) and the homogenate centrifuged at 500× g for 5 min. Ribonuclease A (50 μg ml^-1) was added. After 30 min a second centrifugation was carried out (7000× g, 30 min). Supernatant (~2 ml) was layered on a 10 ml continuous gradient of 2% Ficoll-9% D2 O to 20% Ficoll-90% D2 O in vesicle buffer containing 1 mM dithiothreitol. Centrifugation in a Beckman SW41 rotor was carried out at 80,000× g for 16 h. Fractions (~0.6 ml) were collected dropwise and the distribution of FC label determined. Because of slight variation in fraction size between gradients, data were normalized to 20 fractions for comparison between experiments. Solution density was determined gravimetrically using 100 μl portions of each fraction. The density of a given fraction was reproducible ±0.5% between experiments.
Fibroblast monolayers were incubated with ^3 H-FC LDL for 30 min at 31° C. to predominantly label the intermediate density vesicle fraction. Cell surface LDL was removed as described above. […]

[4] = test system: fibroblasts; settings: Hokland et al. 1993; cited from earlier work
[5] = test system: fibroblast monolayers; assay: Cholesterol efflux from ^3 H-cholesterol labeled fibroblasts to plasma; type: cell-based, human
Method: Fibroblast monolayers were equilibrated with ^3 H-FC-labeled native plasma or with isolated ^3 H-labeled LDL, as specified for each experiment. Following incubation, the dishes were washed with albumin-complete PBS and then (×4) with complete PBS. They were then incubated for 3 min with unlabeled plasma or lipoprotein fractions and the rate of appearance of radioactivity in the medium determined. Samples of medium (100 μl) were immediately chilled in ice water and centrifuged (10 min, 2000× g) at 0-2° C. ^3 H-cholesterol radioactivity in the supernatant was either assayed directly, or fractionated by agarose gel electrophoresis. FC efflux was linear as previously reported (Kawano et al., Biochemistry, 32: 5025-5028 (1993)).
For electrophoresis, 20 μl portions of labeled medium were added to strips of 0.75% w/v agarose in 0.025M barbital buffer (pH 8.6) and separated as previously described (Fielding et al., Biochemistry, 30: 8551-8557 (1991)). 2.5 mm gel fractions were then collected, and radioactivity measured. The location of major lipoprotein classes was determined from strips run simultaneously with whole native plasma equilibrated (60 min, 37° C.) with ^3 H-FC.
^c Percent loss of label from cells prelabeled (10 min, 37° C.

[6] = test system: LDL-receptor deficient cells (GM 2000 line); assay: Influx of ^3 H-FC from LDL into LDL-receptor-deficient fibroblasts (GM 2000)
[7] = Homo sapiens, Fibroblast, read-out: Influx of 3H-FC, % Remaining

Row | Compound | inhibition of LDL-FC pathway (summary, words) [1] | transport of intracellular ^3 H-FC to the cell surface/caveolae [2] | FC Influx [1] | FC Influx, % (PBS only = 100.0) [1] | effect on LDL FC uptake [1] | further results
1 | CO/C1=C\C(C)=C\[C@@H](C)[C@@H](O)[C@@H](C)C/C(C)=C/C=C/[C@H](OC)[C@@H]([C@@H](C)[C@@H](O)[C@H](C)[C@@]2(O)C[C@@H](O)[C@H](C)[C@@H](C(C)C)O2)OC1=O [Bafilomycin A1] | inhibited |  |  |  |  | activity at 45 µM [1, 7]: 70 ± 4%; Emax ([1]; Homo sapiens, Fibroblast, read-out: maximal effect on uptake of FC from LDL): 30%
2 | C[C@H]1CCC/C=C/[C@@H]2C[C@H](O)C[C@H]2[C@H](O)/C=C/C(=O)O1 [Brefeldin A] | not inhibited | unaffected |  |  |  | % transfer of intracellular ^3 H-FC to the cell surface, relative to rate in absence of inhibitor [2]: 95 ± 5%; effect on uptake of ^3 H-FC from LDL [1]: without effect
3 | CCN(CC)CCCC(C)Nc1ccnc2cc(Cl)ccc12 (stereo not shown) [Chloroquine] |  |  | 1.34 ± 0.04 µg | 102.3% |  | LDL-FC influx (discussion, words) [1]: no effect
4 | C=C1C(C)C2C(Cc3ccccc3)NC(=O)C23C(OC(C)=O)/C=C/C(C)(O)C(=O)C(C)CC=CC3C1O (stereo not shown) [Cytochalasin D] | inhibited | no effect |  |  |  | FC label in density gradient [3]: A similar result; activity at 40 µM [1, 7]: 38 ± 2%; inhibition at 40 µM ([1]; Homo sapiens, Fibroblast, read-out: reduction of uptake of ^3 H-FC from LDL (average)): 65%; inhibition at higher concentration (words) ([1]; listed as Cytochalasin): No greater inhibition; inhibition at higher concentration (words) ([1]; listed as cytochalasin D): no increase in inhibition
5 | C=C[C@@]1(C)CC(=O)[C@]2(O)[C@@]3(C)[C@@H](O)CCC(C)(C)[C@@H]3[C@H](O)[C@H](OC(C)=O)[C@@]2(C)O1 [Forskolin] | not inhibited |  | 1.39 ± 0.01 µg | 105.3% | no effect | transfer of newly-synthesized cholesterol to plasma membrane [4]: stimulated; LDL-FC influx (discussion, words) [1]: unaffected
6 | CC(C)Cn1c(=O)n(C)c(=O)c2[nH]cnc21 [IBMX, isobutyl methylxanthine] | not inhibited |  | 1.46 ± 0.04 µg | 110.8% | no effect | transfer of newly-synthesized cholesterol to plasma membrane [4]: stimulated; LDL-FC influx (discussion, words) [1]: unaffected
7 | O=[N+]([O-])[O-].[K+] [KNO3] | inhibited | inhibited the return of FC to the cell surface, but less effectively than did nocodazole | 0.28 ± 0.02 µg | 21.0% |  | % transfer of intracellular ^3 H-FC to the cell surface, relative to rate in absence of inhibitor [2]: 70 ± 4%; time course of inhibition of ^3 H-FC transfer compared with NEM (FIG. 8) ([1]; 50 mM KNO3, data not shown): comparable time course; inhibition of uptake of free cholesterol from LDLs (summary) ([1]; NEM or KNO3, Example 1, FIG. 8): > 80%; initial rate of efflux of FC from prelabeled cells to plasma [5]: increased several-fold
8 | CC[C@@]1([C@@H]2O[C@@H]([C@H]3O[C@@](O)(CO)[C@H](C)C[C@@H]3C)C[C@@H]2C)CC[C@H]([C@]2(C)CC[C@]3(C[C@H](O)[C@@H](C)[C@@H]([C@@H](C)[C@@H](OC)[C@H](C)C(=O)O)O3)O2)O1 [Monensin] | inhibited |  |  |  | effective in reducing the selective uptake of FC from LDL | selective uptake of FC from LDL, LDL-receptor deficient cells ([6]; GM2000): Comparable results; FC label in density gradient [3]: A similar result; inhibition at higher concentration (words) [1]: no increase in inhibition
9 | [NH4+].[O]=[V](=[O])[O-] [NH4 -vanadate] | not inhibited |  | 1.36 ± 0.08 µg | 103.2% | without effect | 
10 | [N-]=[N+]=[N-].[Na+] [Na-azide] | not inhibited |  | 1.18 ± 0.02 µg | 89.5% | without effect | 
11 | COC(=O)Nc1nc2ccc(C(=O)c3cccs3)cc2[nH]1 [Nocodazole] | not inhibited | reduced |  |  |  | transport of the vesicles to the plasma membrane (summary, words) [2]: inhibited; % transfer of intracellular ^3 H-FC to the cell surface, relative to rate in absence of inhibitor [2]: 40 ± 1%; activity at 60 µM ([1]; Homo sapiens, Fibroblast, cytochalasin D 40 μM, monensin 40 μM, nocodazole 60 μM, bafilomycin A1 45 μM, means ±1 SD of three experiments, read-out: Influx of 3H-FC, % Remaining): 101 ± 6%; effect on uptake of ^3 H-FC from LDL [1]: without effect
12 | CC[C@]1(O)C[C@@H]2CN(CCc3c([nH]c4ccccc34)[C@@](C(=O)OC)(c3cc4c(cc3OC)N(C)[C@H]3[C@@](O)(C(=O)OC)[C@H](OC(C)=O)[C@]5(CC)C=CCN6CC[C@]43[C@@H]65)C2)C1 [Vinblastine] | not inhibited | unaffected |  |  |  | inhibition at 40 µM ([2]; Homo sapiens, Fibroblast, read-out: % transfer of intracellular ^3 H-FC to the cell surface, relative to rate in absence of inhibitor): 100 ± 2%; effect on uptake of ^3 H-FC from LDL [1]: without effect
13 | [3H]C1C([3H])[C@@]2(C)C(=CC[C@H]3[C@@H]4CC[C@H]([C@H](C)CCCC(C)C)[C@@]4(C)CC[C@@H]32)C[C@H]1O (stereo partly shown) [^3 H-FC, 1,2-^3 H-cholesterol] |  |  |  |  |  | cholest-4-en-3-one fraction of total label ([2]; 0-4° C., 4 experiments): 0.8±0.2%; t1/2 of increase in oxidized FC (transfer to cell surface) ([2]; 31° C., FIG. 11): ~ 2 min; internalized FC localized to oxidase-sensitive fraction ([2]; after 2 min pulse label, 31° C.): about 40%
14 | CC(=O)O[C@H]1C(=O)[C@@]2(C)[C@H]([C@H](OC(=O)c3ccccc3)[C@]3(O)C[C@H](OC(=O)[C@H](O)[C@@H](NC(=O)c4ccccc4)c4ccccc4)C(C)=C1C3(C)C)[C@]1(OC(C)=O)CO[C@@H]1C[C@@H]2O [taxol] | not inhibited |  |  |  |  | effect on uptake of ^3 H-FC from LDL [1]: without effect
15 | sodium heparin |  |  |  |  |  | inhibition of influx of FC from LDL ([6]; heparin 0.1 mg/ml, GM 2000 cells): Approximately 80%; inhibition of influx of FC from LDL ([1]; heparin 0.1 mg/ml, normal cells, LDL 150 μg FC ml^-1, 10 min 37° C.): Approximately 80%
